Data published in patent US20250129104A1, “7H-PYRROLO[2,3-D]PYRIMIDINES AND PREPARATION AND USES THEREOF” (BioSplice Therapeutics, Inc., priority 2021, published 2025).

What was measured:
[1] = molecular target: recombinant DYRK1A kinase (Homo sapiens (Human), UniProt Q13627); test: DYRK1A kinase assay (Ser/Thr 18 peptide Z-lyte FRET assay); format: biochemical; conditions: DYRK1A kinase activity; 15 μM ATP, 1 h room temperature; method text calls the value IC50
Outline: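 Recombinant human DYRK1A (0.25 μg/mL) with 15 μM ATP and 4 μM Ser/Thr 18 peptide, 1 h at room temperature with compound (11-point, 1:3, 10 μM top, duplicate). Z-lyte development 1 h, then coumarin/fluorescein FRET emission ratio converted to % phosphorylation; IC50 by non-linear regression.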

[2] = system: Tau phosphorylation at Thr212 (pThr212); test: tau phosphorylation assay: phosphoTau (Thr212) AlphaLISA in HEK293T cells transfected with DYRK1A and MAPT; format: cell-based; conditions: HEK-293T; HEK293T cells transfected with human DYRK1A and MAPT; 18-24 h compound treatment; read-out: pTau (Thr212) EC50
Method: Representative compounds were screened using the assay procedure for tau phosphorylation activity described below.
HEK293T cells (ATCC, CRL3216) cultured in DMEM (Thermo Fisher Scientific, 10566024) supplemented with 10% FBS (Corning, 35-011-CV) and Penicillin/Streptomycin (Thermo Fisher Scientific, 15140163) were seeded in a 75 cm^2 flask at 8.1×10^6 cells/flask. The HEK293T cells were then transiently transfected with 5 μg DYRK1A (NM_001396) human untagged clone (OriGene, SC314641) and 2.5 μg MAPT (441 a.a. Tau gene) (NM_005910) human untagged clone (OriGene, TP313312) using Lipofectamine 3000 (Thermo Fisher Scientific, L30000015) and incubated for 20-30 hours in a humidified incubator at 37° C. and 5% CO2. Post-incubation, HEK293T cells transfected with the DYRK1A and MAPT expression vectors were harvested and seeded in BioCoat poly-D lysine coated 96-well plates (Corning, 354461) at 3×10^4 cells/well.
The above synthesized compounds were screened using the cell assay procedure to assess decreased Tau phosphorylation at Thr212 (pThr212) described below.
Each compound was dissolved in DMSO (Sigma-Aldrich, D8418-100 mL) as a 10 mM stock. 10 mM stocks were serially diluted 1:3, 10-point dose-response curve and added to the cells with a final concentration ranging from 20 μM to 1.1 nM. Cell were treated with compounds in duplicate and incubated for 18-24 hours in a humidified incubator at 37° C. and 5% CO2.
Following the overnight compound treatment, cells were lysed with 1× Alpha Surefire Ultra Lysis Buffer (Perkin Elmer, ALSU-LB-100ML) complemented with 1× Halt Phosphatase Inhibitor Cocktail (Thermo Fisher Scientific, 78427) and 1× Halt Protease Inhibitor Cocktail (Thermo Fisher Scientific, 78438). Lysates were spun down at 12,000 g for 10 min to remove any cellular debris and 5 μL of lysates were dispensed into a 384-well Opti-Plate (Perkin Elmer, 6007290) for the measurement of Tau phosphorylation in the phosphoTau (Thr212) AlphaLISA assay. Donor antibody, biotinylated HT7Tau (Thermo Fisher Scientific, MN1000B), and acceptor antibody, pThr212Tau (Thermo Fisher Scientific, 44740G) were both added to the cell lysates at a final concentration of 3 nM and incubated for 1 hour at room temperature. Following incubation of the lysates with the donor and acceptor antibodies, anti-rabbit IgG (Fc specific) AlphaLISA acceptor beads (Perkin Elmer, AL104C) were added at a 10 μg/mL final concentration and incubated for 1 hour at room temperature protected from light. Lastly, AlphaScreen streptavidin donor beads (PerkinElmer, 6760002) were added at 40 μg/mL final concentration and incubated for 1 hour at room temperature protected from light. Plates were read at […], and Em=615 nm on the EnVision Multilabel Plate Reader (Perkin Elmer). PhosphoTau (Thr212) AlphaLISA signal was used to plot, draw the curve fitting, and determine each compound's EC50 in Prism (GraphPad).

Compound: Cc1nc2ccc(-c3c[nH]c4nc(NCC(C)(C)F)ncc34)cc2s1 [Compound 24, N-(2-Fluoro-2-methylpropyl)-5-(2-methylbenzo[d]thiazol-6-yl)-7H-pyrrolo [2,3-d]pyrimidin-2-amine]
- EC50 [1]: 14.5 nM
- EC50 [2]: 360 nM

Compound: CN1CCC(Nc2ncc3c(-c4cc5cnccc5s4)c[nH]c3n2)CC1 [Compound 87, N-(1-Methylpiperidin-4-yl)-5-(thieno[3,2-c]pyridin-2-yl)-7H-pyrrolo[2,3-d]pyrimidin-2-amine]
- EC50 [1]: 6.8 nM
- EC50 [2]: 107 nM

Compound: c1cn2cc(-c3c[nH]c4nc(C5CCC5)ncc34)ccc2n1 [Compound 103, 2-cyclobutyl-5-(imidazo[1,2-a]pyridin-6-yl)-7H-pyrrolo[2,3-d]pyrimidine]
- EC50 [1]: 21.9 nM
- EC50 [2]: 4500 nM

Compound: CC(C)(C)CNc1ncc2c(-c3ccc4nccn4c3)c[nH]c2n1 [Compound 110, 5-(Imidazo[1,2-a]pyridin-6-yl)-N-neopentyl-7H-pyrrolo[2,3-d]pyrimidin-2-amine]
- EC50 [1]: 36 nM
- EC50 [2]: 22 nM

Compound: CC(C)(F)CNc1ncc2c(-c3ccc4nccn4c3)c[nH]c2n1 [Compound 112, N-(2-Fluoro-2-methylpropyl)-5-(imidazo[1,2-a]pyridin-6-yl)-7H-pyrrolo[2,3-d]pyrimidin-2-amine]
- EC50 [1]: 2.8 nM
- EC50 [2]: 113 nM

Compound: C[C@]1(O)CC[C@@H](Nc2ncc3c(-c4ccc5nccn5n4)c[nH]c3n2)CC1 [Compound 3224, (1s,4s)-4-((5-(Imidazo[1,2-b]pyridazin-6-yl)-7H-pyrrolo[2,3-d]pyrimidin-2-yl)amino)-1-methylcyclohexan-1-ol]
- EC50 [1]: 2.6 nM

Compound: CO[C@H]1CC[C@H](Nc2ncc3c(-c4ccn5nccc5c4)c[nH]c3n2)CC1 [Compound 3277, N-(trans-4-Methoxycyclohexyl)-5-(pyrazolo[1,5-a]pyridin-5-yl)-7H-pyrrolo[2,3-d]pyrimidin-2-amine]
- EC50 [1]: 1.9 nM

Compound: FC(F)O[C@H]1CC[C@H](Nc2ncc3c(-c4ccn5nccc5c4)c[nH]c3n2)CC1 [Compound 3278, N-(trans-4-(Difluoromethoxy)cyclohexyl)-5-(pyrazolo[1,5-a]pyridin-5-yl)-7H-pyrrolo[2,3-d]pyrimidin-2-amine]
- EC50 [1]: 19.2 nM

Compound: COc1nc(N)nc2[nH]cc(-c3ccn4nccc4c3)c12 [Compound 3291, 4-methoxy-5-(pyrazolo[1,5-a]pyridin-5-yl)-7H-pyrrolo[2,3-d]pyrimidin-2-amine]
- EC50 [1]: 1.1 nM

Compound: COc1nc(N[C@H]2CC[C@H](OC)CC2)nc2[nH]cc(-c3ccn4nccc4c3)c12 [Compound 3310, 4-Methoxy-N-(trans-4-methoxycyclohexyl)-5-(pyrazolo[1,5-a]pyridin-5-yl)-7H-pyrrolo[2,3-d]pyrimidin-2-amine]
- EC50 [1]: 230 nM

Compound: [2H]C([2H])([2H])Oc1nc(N[C@H]2CC[C@@H](OC)CC2)nc2[nH]cc(-c3ccn4nccc4c3)c12 [Compound 3311, 4-(Methoxy-d3)—N-(cis-4-methoxycyclohexyl)-5-(pyrazolo[1,5-a]pyridin-5-yl)-7H-pyrrolo[2,3-d]pyrimidin-2-amine]
- EC50 [1]: 1.4 nM

Compound: COc1nc(NC2CC3(COC3)C2)nc2[nH]cc(-c3ccn4nccc4c3)c12 [Compound 3321, 4-Methoxy-5-(pyrazolo[1,5-a]pyridin-5-yl)-N-(2-oxaspiro[3.3]heptan-6-yl)-7H-pyrrolo[2,3-d]pyrimidin-2-amine]
- EC50 [1]: 37.5 nM

Compound: COc1nc(NC2CCC3(CC2)COC3)nc2[nH]cc(-c3ccn4nccc4c3)c12 [Compound 3326, 4-Methoxy-5-(pyrazolo[1,5-a]pyridin-5-yl)-N-(2-oxaspiro[3.5]nonan-7-yl)-7H-pyrrolo[2,3-d]pyrimidin-2-amine]
- EC50 [1]: 1.6 nM

Compound: COc1nc(N[C@H]2CC[C@@H](OC)CC2)nc2[nH]cc(-c3ccn4ncnc4c3)c12 [Compound 3384, 5-([1,2,4]Triazolo[1,5-a]pyridin-7-yl)-4-methoxy-N-(cis-4-methoxycyclohexyl)-7H-pyrrolo[2,3-d]pyrimidin-2-amine]
- EC50 [1]: 1.2 nM

Compound: CO[C@H]1CC[C@H](Nc2ncc3c(-c4ccn5nccc5n4)c[nH]c3n2)CC1 [Compound 3420, N-(trans-4-Methoxycyclohexyl)-5-(pyrazolo[1,5-a]pyrimidin-5-yl)-7H-pyrrolo[2,3-d]pyrimidin-2-amine]
- EC50 [1]: 5.6 nM

Compound: FC(F)O[C@H]1CC[C@H](Nc2ncc3c(-c4ccn5nccc5n4)c[nH]c3n2)CC1 [Compound 3421, N-(trans-4-(difluoromethoxy)cyclohexyl)-5-(pyrazolo[1,5-a]pyrimidin-5-yl)-7H-pyrrolo[2,3-d]pyrimidin-2-amine]
- EC50 [1]: 28.1 nM

Compound: C[C@]1(O)CC[C@@H](Nc2ncc3c(-c4ccn5nccc5n4)c[nH]c3n2)CC1 [Compound 3426, (1s,4s)-1-Methyl-4-((5-(pyrazolo[1,5-a]pyrimidin-5-yl)-7H-pyrrolo[2,3-d]pyrimidin-2-yl)amino)cyclohexan-1-ol]
- EC50 [1]: 3.2 nM

Compound: c1cc2nc(-c3c[nH]c4nc(NC5CCC6(CC5)COC6)ncc34)ccn2n1 [Compound 3435, 5-(Pyrazolo[1,5-a]pyrimidin-5-yl)-N-(2-oxaspiro[3.5]nonan-7-yl)-7H-pyrrolo[2,3-d]pyrimidin-2-amine]
- EC50 [1]: 2.3 nM

Compound: CNc1nc(N[C@H]2CC[C@](C)(O)CC2)nc2[nH]cc(-c3ccn4nccc4n3)c12 [Compound 3454, trans-1-methyl-4-((4-(methylamino)-5-(pyrazolo[1,5-a]pyrimidin-5-yl)-7H-pyrrolo[2,3-d]pyrimidin-2-yl)amino)cyclohexan-1-ol]
- EC50 [1]: 3.4 nM

Compound: CNc1nc(N2CC3(CO)CCC2CC3)nc2[nH]cc(-c3ccn4nccc4n3)c12 [Compound 3459, (2-(4-(methylamino)-5-(pyrazolo[1,5-a]pyrimidin-5-yl)-7H-pyrrolo[2,3-d]pyrimidin-2-yl)-2-azabicyclo[2.2.2]octan-4-yl)methanol]
- EC50 [1]: 210 nM

Compound: CNc1nc(NC2CCC3(CC2)COC3)nc2[nH]cc(-c3ccn4nccc4n3)c12 [Compound 3461, N^4-Methyl-5-(pyrazolo[1,5-a]pyrimidin-5-yl)-N^2-(2-oxaspiro[3.5]nonan-7-yl)-7H-pyrrolo[2,3-d]pyrimidine-2,4-diamine]
- EC50 [1]: 1.9 nM

Compound: COc1nc(N[C@H]2CC[C@@H](OC)CC2)nc2[nH]cc(-c3ccc4nccnc4c3)c12 [Compound 3575, 4-Methoxy-N-(cis-4-methoxycyclohexyl)-5-(quinoxalin-6-yl)-7H-pyrrolo[2,3-d]pyrimidin-2-amine]
- EC50 [1]: 0.7 nM

Compound: COc1nc(NC2CCC3(CC2)COC3)nc2[nH]cc(-c3ccc4nccnc4c3)c12 [Compound 3590, 4-Methoxy-5-(quinoxalin-6-yl)-N-(2-oxaspiro[3.5]nonan-7-yl)-7H-pyrrolo[2,3-d]pyrimidin-2-amine]
- EC50 [1]: 1.6 nM

Compound: Cn1nnc2ccc(-c3c[nH]c4nc(N[C@H]5CC[C@@](C)(O)CC5)ncc34)cc21 [Compound 3643, (1s,4s)-1-Methyl-4-((5-(1-methyl-1H-benzo[d][1,2,3]triazol-6-yl)-7H-pyrrolo[2,3-d]pyrimidin-2-yl)amino)cyclohexan-1-ol]
- EC50 [1]: 0.7 nM

Compound: N-(4,4-Difluorocyclohexyl)-4-methoxy-5-(pyrazolo[1,5-a]pyrimidin-5-yl)-7H-pyrrolo[2,3-d]pyrimidin-2-amine [Compound 2223]
- EC50 [1]: 9.4 nM

Compound: N-(cis-3-Methoxycyclobutyl)-5-(1-methyl-1H-benzo[d][1,2,3]triazol-6-yl)-7H-pyrrolo[2,3-d]pyrimidin-2-amine [Compound 2051]
- EC50 [1]: 7.8 nM

Compound: N-(cis-4-(Methoxy-d3)cyclohexyl)-5-(pyrazolo[1,5-a]pyrimidin-5-yl)-7H-pyrrolo[2,3-d]pyrimidin-2-amine [Compound 2221]
- EC50 [1]: 3.6 nM

Compound: cis-4-((4-Ethoxy-5-(pyrazolo[1,5-a]pyrimidin-5-yl)-7H-pyrrolo[2,3-d]pyrimidin-2-yl)amino)cyclohexan-1-ol [Compound 2225]
- EC50 [1]: 15.4 nM
